Data from US20250145594A1, “MODULATORS OF THE INTEGRATED STRESS PATHWAY” (Calico Life Sciences LLC, priority 2020, published 2025).

System: ATF4 luciferase reporter in HEK293T cells
Assay: ATF4-Luc assay (in vitro model of VWMD)
Type: cell-based, human
Conditions: Homo sapiens, HEK-293T, 7 h, HEK293T cells carrying the ATF4 luciferase reporter, 1 μg/mL tunicamycin, One Glo luminescence
How it was run: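 Tunicamycin (1 μg/mL) stress with co-added compound for 7 hours in HEK293T cells stably carrying an ATF4 5′-UTR–luciferase reporter. EC50 values come from the luminescent signal (One Glo).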

Structure (SMILES): O=C(NC12CC(n3cc(N4CC[C@@H](OC(F)F)C4)cn3)(C1)C2)[C@H]1C[C@@H](O)c2cc(Cl)ccc2O1 [Compound 318, (2R,4R)-6-chloro-N-(3-{4-[(3R)-3-(difluoromethoxy)pyrrolidin-1-yl]-1H-pyrazol-1-yl}bicyclo[1.1.1]pentan-1-yl)-4-hydroxy-3,4-dihydro-2H-1-benzopyran-2-carboxamide]
- EC50: 50 to 250 nM

Structure (SMILES): O=C(NC12CC(c3cn([C@H]4C[C@@H](OC(F)(F)F)C4)nn3)(C1)C2)[C@H]1C[C@@H](O)c2cc(Cl)ccc2O1 [Compound 315, (2R,4R)-6-chloro-4-hydroxy-N-(3-{1-[cis-3-(trifluoromethoxy)cyclobutyl]-1H-1,2,3-triazol-4-yl}bicyclo[1.1.1]pentan-1-yl)-3,4-dihydro-2H-1-benzopyran-2-carboxamide]
- EC50: 10 to 50 nM

Structure (SMILES): O=C(NC12CC(n3cc(OCCCOC(F)(F)F)cn3)(C1)C2)[C@H]1C[C@@H](O)c2cc(C(F)(F)F)c(F)cc2O1 [Compound 635, (2R,4R)-7-fluoro-4-hydroxy-N-(3-{4-[3-(trifluoromethoxy)propoxy]-1H-pyrazol-1-yl}bicyclo[1.1.1]pentan-1-yl)-6-(trifluoromethyl)-3,4-dihydro-2H-1-benzopyran-2-carboxamide]
- EC50: < 10 nM

Structure (SMILES): O=C(NC12CC(n3cc(OCCOC(F)(F)F)nn3)(C1)C2)[C@H]1C[C@@H](O)c2cc(Cl)ccc2O1 [Compound 487, (2R,4R)-6-chloro-4-hydroxy-N-(3-{4-[2-(trifluoromethoxy)ethoxy]-1H-1,2,3-triazol-1-yl}bicyclo[1.1.1]pentan-1-yl)-3,4-dihydro-2H-1-benzopyran-2-carboxamide]
- EC50: < 10 nM

Structure (SMILES): O=C(CO[C@H]1C[C@@H](OC(F)(F)F)C1)NC12CCC(NC(=O)[C@H]3C[C@@H](O)c4cc(Cl)c(F)cc4O3)(CC1)[C@@H](O)C2 [Compound 490, (2R,4R)-6-chloro-7-fluoro-4-hydroxy-N-[(2S)-2-hydroxy-4-(2-{[(1s,3R)-3-(trifluoromethoxy)cyclobutyl]oxy}acetamido)bicyclo[2.2.2]octan-1-yl]-3,4-dihydro-2H-1-benzopyran-2-carboxamide]
- EC50: < 10 nM

Structure (SMILES): O=C(COc1ccc(Cl)c(F)c1)NC12CC(n3cc([C@H]4[C@@H]5CN(CC(F)(F)F)C[C@@H]54)cn3)(C1)C2 [Compound 625, 2-(4-chloro-3-fluorophenoxy)-N-(3-{4-[(1R,5S,6s)-3-(2,2,2-trifluoroethyl)-3-azabicyclo[3.1.0]hexan-6-yl]-1H-pyrazol-1-yl}bicyclo[1.1.1]pentan-1-yl)acetamide]
- EC50: < 10 nM

Structure (SMILES): COc1ncc(-c2cnn(C34CC(NC(=O)[C@@H]5C[C@@H](O)c6cc(Cl)ccc6O5)(C3)C4)c2)cn1 [Compound 396, (2S,4R)-6-chloro-4-hydroxy-N-{3-[4-(2-methoxypyrimidin-5-yl)-1H-pyrazol-1-yl]bicyclo[1.1.1]pentan-1-yl}-3,4-dihydro-2H-1-benzopyran-2-carboxamide]
- EC50: 50 to 250 nM

Structure (SMILES): O=C(NC12CC(n3cc(-c4ccc(OC(F)(F)F)c(F)c4)cn3)(C1)C2)[C@@H]1C[C@@H](O)c2cc(Cl)ccc2O1 [Compound 306, (2S,4R)-6-chloro-N-(3-{4-[3-fluoro-4-(trifluoromethoxy)phenyl]-1H-pyrazol-1-yl}bicyclo[1.1.1]pentan-1-yl)-4-hydroxy-3,4-dihydro-2H-1-benzopyran-2-carboxamide]
- EC50: < 10 nM

Structure (SMILES): O=C(NC12CC(n3cc(-c4ccc(OC(F)(F)F)cn4)cn3)(C1)C2)[C@H]1C[C@@H](O)c2cc(F)ccc2O1 (racemic) [Compound 552, rac-(2R,4R)-6-fluoro-4-hydroxy-N-(3-{4-[5-(trifluoromethoxy)pyridin-2-yl]-1H-pyrazol-1-yl}bicyclo[1.1.1]pentan-1-yl)-3,4-dihydro-2H-1-benzopyran-2-carboxamide]
- EC50: < 10 nM

Structure (SMILES): O=C(N[C@H]1C[C@H]2O[C@@H]1C[C@@H]2c1nnc([C@H]2C[C@@H](OC(F)(F)F)C2)o1)[C@@H]1C[C@H](O)c2cc(Cl)ccc2O1 (mixture of isomers) [Compound 186, (2S,4S)-6-chloro-4-hydroxy-N-[(1RS,2SR,4RS,5SR)-5-{5-[cis-3-(trifluoromethoxy)cyclobutyl]-1,3,4-oxadiazol-2-yl}-7-oxabicyclo[2.2.1]heptan-2-yl]-3,4-dihydro-2H-1-benzopyran-2-carboxamide]
- EC50: 10 to 50 nM

Structure (SMILES): O=C(NC12CC(n3cc(N4CC[C@H](COC(F)(F)F)C4)cn3)(C1)C2)[C@H]1C[C@@H](O)c2cc(Cl)ccc2O1 [Compound 373, (2R,4R)-6-chloro-4-hydroxy-N-[3-(4-{(3S)-3-[(trifluoromethoxy)methyl]pyrrolidin-1-yl}-1H-pyrazol-1-yl)bicyclo[1.1.1]pentan-1-yl]-3,4-dihydro-2H-1-benzopyran-2-carboxamide]
- EC50: 50 to 250 nM

Structure (SMILES): O=C(COc1ccc(Cl)c(F)c1)NC12CCC(n3cc(OCCCOC(F)(F)F)cn3)(C1)C2 [Compound 630, 2-(4-chloro-3-fluorophenoxy)-N-(4-{4-[3-(trifluoromethoxy)propoxy]-1H-pyrazol-1-yl}bicyclo[2.1.1]hexan-1-yl)acetamide]
- EC50: 50 to 250 nM

Structure (SMILES): O=C(N[C@H]1CC[C@H](n2cc(OCCOC(F)(F)F)cn2)CC1)[C@H]1C[C@H](O)c2cc(Cl)ccc2O1 [Compound 447, (2R,4S)-6-chloro-4-hydroxy-N-[(1r,4R)-4-{4-[2-(trifluoromethoxy)ethoxy]-1H-pyrazol-1-yl}cyclohexyl]-3,4-dihydro-2H-1-benzopyran-2-carboxamide]
- EC50: 50 to 250 nM

Structure (SMILES): O=C(CO[C@H]1C[C@@H](OC(F)(F)F)C1)NC12CCC(NC(=O)[C@H]3C[C@@H](O)c4cc(C(F)(F)F)ccc4O3)(CC1)[C@@H](O)C2 [Compound 489, (2R,4R)-4-hydroxy-N-[(2S)-2-hydroxy-4-(2-{[(1s,3R)-3-(trifluoromethoxy)cyclobutyl]oxy}acetamido)bicyclo[2.2.2]octan-1-yl]-6-(trifluoromethyl)-3,4-dihydro-2H-1-benzopyran-2-carboxamide]
- EC50: < 10 nM

Structure (SMILES): O=C(NC12CC(OCC(=O)N3CC(COC(F)(F)F)C3)(C1)C2)[C@H]1C[C@@H](O)c2cc(Cl)ccc2O1 [Compound 335, (2R,4R)-6-chloro-4-hydroxy-N-[3-(2-oxo-2-{3-[(trifluoromethoxy)methyl]azetidin-1-yl}ethoxy)bicyclo[1.1.1]pentan-1-yl]-3,4-dihydro-2H-1-benzopyran-2-carboxamide]
- EC50: 50 to 250 nM

Structure (SMILES): O=C(NC12CC(n3cc(OCCCOC(F)(F)F)cn3)(C1)C2)[C@H]1C[C@@H](O)c2cc(C(F)(F)F)ccc2O1 [Compound 435, (2R,4R)-4-hydroxy-N-(3-{4-[3-(trifluoromethoxy)propoxy]-1H-pyrazol-1-yl}bicyclo[1.1.1]pentan-1-yl)-6-(trifluoromethyl)-3,4-dihydro-2H-1-benzopyran-2-carboxamide]
- EC50: < 10 nM

Structure (SMILES): O=C(COc1ccc(C(F)(F)F)cc1)NC12CC(n3cc(C(=O)N4CC[C@H](OC(F)(F)F)C4)cn3)(C1)C2 [Compound 604, N-(3-{4-[(3S)-3-(trifluoromethoxy)pyrrolidine-1-carbonyl]-1H-pyrazol-1-yl}bicyclo[1.1.1]pentan-1-yl)-2-[4-(trifluoromethyl)phenoxy]acetamide]
- EC50: < 10 nM

Structure (SMILES): O=C(NC12CC(n3cc(-c4ccc(C(F)(F)F)cn4)cn3)(C1)C2)[C@H]1C[C@@H](O)c2cc(Cl)c(F)cc2O1 [Compound 482, (2R,4R)-6-chloro-7-fluoro-4-hydroxy-N-(3-{4-[5-(trifluoromethyl)pyridin-2-yl]-1H-pyrazol-1-yl}bicyclo[1.1.1]pentan-1-yl)-3,4-dihydro-2H-1-benzopyran-2-carboxamide]
- EC50: < 10 nM

Structure (SMILES): O=C(NC12CC(n3cnc(C(=O)N4CC(COC(F)(F)F)C4)c3)(C1)C2)[C@H]1C[C@@H](O)c2cc(Cl)ccc2O1 [Compound 368, (2R,4R)-6-chloro-4-hydroxy-N-[3-(4-{3-[(trifluoromethoxy)methyl]azetidine-1-carbonyl}-1H-imidazol-1-yl)bicyclo[1.1.1]pentan-1-yl]-3,4-dihydro-2H-1-benzopyran-2-carboxamide]
- EC50: 10 to 50 nM

Structure (SMILES): O=C(NC12CC(n3cnc(C(=O)N4CC(OC(F)(F)F)C4)c3)(C1)C2)[C@H]1C[C@@H](O)c2cc(Cl)ccc2O1 [Compound 395, (2R,4R)-6-chloro-4-hydroxy-N-(3-{4-[3-(trifluoromethoxy)azetidine-1-carbonyl]-1H-imidazol-1-yl}bicyclo[1.1.1]pentan-1-yl)-3,4-dihydro-2H-1-benzopyran-2-carboxamide]
- EC50: 10 to 50 nM

Structure (SMILES): O=C(NC12CC(n3cc(OC[C@H]4C[C@H](OC(F)(F)F)C4)cn3)(C1)C2)[C@H]1C[C@@H](O)c2cc(Cl)ccc2O1 [Compound 584, (2R,4R)-6-chloro-4-hydroxy-N-[3-(4-{[(1r,3R)-3-(trifluoromethoxy)cyclobutyl]methoxy}-1H-pyrazol-1-yl)bicyclo[1.1.1]pentan-1-yl]-3,4-dihydro-2H-1-benzopyran-2-carboxamide]
- EC50: < 10 nM

Structure (SMILES): O=C(NC12CC(c3ccnc(OCCCOC(F)(F)F)c3)(C1)C2)[C@H]1C[C@@H](O)c2cc(Cl)ccc2O1 [Compound 428, (2R,4R)-6-chloro-4-hydroxy-N-(3-{2-[3-(trifluoromethoxy)propoxy]pyridin-4-yl}bicyclo[1.1.1]pentan-1-yl)-3,4-dihydro-2H-1-benzopyran-2-carboxamide]
- EC50: < 10 nM

Structure (SMILES): O=C(NC12CC(n3cc4cc(COCC(F)(F)F)ccc4n3)(C1)C2)[C@H]1C[C@@H](O)c2cc(Cl)c(F)cc2O1 [Compound 651, (2R,4R)-6-chloro-7-fluoro-4-hydroxy-N-(3-{5-[(2,2,2-trifluoroethoxy)methyl]-2H-indazol-2-yl}bicyclo[1.1.1]pentan-1-yl)-3,4-dihydro-2H-1-benzopyran-2-carboxamide]
- EC50: < 10 nM

Structure (SMILES): O=C(NC12CC(n3cc(C[C@H]4C[C@H](OC(F)(F)F)C4)cn3)(C1)C2)[C@H]1C[C@@H](O)c2cc(Cl)c(F)cc2O1 [Compound 530, (2R,4R)-6-chloro-7-fluoro-4-hydroxy-N-[3-(4-{[(1r,3S)-3-(trifluoromethoxy)cyclobutyl]methyl}-1H-pyrazol-1-yl)bicyclo[1.1.1]pentan-1-yl]-3,4-dihydro-2H-1-benzopyran-2-carboxamide]
- EC50: 10 to 50 nM
